Assay results published in paper PMC4415882 (Biochemistry, 2013).

Tests used:
[1] = molecular target: NPP (nucleotide pyrophosphatase/phosphodiesterase) (Xanthomonas citri, UniProt A0A0U5FM15, T90S); conditions: read-out: average; average over substrates pNPP, Me-pNPP, bis-pNPP, dT-5'-pNPP (subsaturating); 0.1 M Tris-HCl pH 8.0, 0.5 M NaCl, 100 µM ZnCl2, 25 °C; competitive
[2] = molecular target: NPP (nucleotide pyrophosphatase/phosphodiesterase) (Xanthomonas citri, UniProt A0A0U5FM15, L123A); conditions: read-out: average; average over substrates pNPP, Me-pNPP, bis-pNPP, dT-5'-pNPP (subsaturating); 0.1 M Tris-HCl pH 8.0, 0.5 M NaCl, 100 µM ZnCl2, 25 °C; competitive

[O]=[V]([OH])([OH])[OH] [vanadate]
Ki [1]: 340 ± 140 µM | Ki [2]: 154 ± 8 µM
